Results on 35 compounds are retold here after ChEMBL document CHEMBL5108025, “New thiazole-based derivatives as EGFR/HER2 and DHFR inhibitors: Synthesis, molecular modeling simulations and anticancer activity” (Eur J Med Chem, 2022).

The subject of one assay is PC-3. Description: Antiproliferative activity against human PC-3 cells after 72 hrs by MTT assay. It is filed as functional, cell-based. The note with it: PC-3, 72 h.
For a further assay, the system named is HeLa. Description: Antiproliferative activity against human HeLa cells after 72 hrs by MTT assay. Format: functional, cell-based.
In a further assay the test system is HepG2. Description: cells. Conditions: Homo sapiens, HepG2, 72 h.
A further assay concerns MCF7. Description: cells. The note with it: Homo sapiens, MCF7, 72 h.
For another assay, the system named is HCT-116. The assay is described as follows: cells. Conditions: Homo sapiens, HCT-116, 72 h.

SMILES strings stand for the structures.

Description for HCT-116: Antiproliferative activity against human HCT-116 cells after 72 hrs by MTT assay

Regarding `O=C(NCc1ccccc1)c1csc(NC(=S)Nc2ccc(Cl)cc2)n1`, the 50% inhibitory concentration (IC50) with PC-3 came out at 51.3 µM; in the assay on HeLa it was 76 µM; in the assay with HepG2, 40.3 µM; with MCF7 it was 56.5 µM; in the assay on HCT-116 it was 62.1 µM.

Turning to `CCOC(=O)c1csc2nc(CN3CCN(C)CC3)c(-c3ccc(Br)cc3)n12`, the half-maximal inhibitory concentration (IC50) was 85 µM in the assay on PC-3; 55.4 µM in the assay with HeLa; 82.7 µM in the assay on HepG2; 68.5 µM in the assay with MCF7; 93.6 µM in the assay with HCT-116.

`CCC(=O)NNC(=O)c1csc2ncc(-c3ccc(Br)cc3)n12`: the IC50 with PC-3 came to 43.7 µM; in the assay on HeLa, 23.1 µM; with HepG2, 19.2 µM; in the assay on MCF7 it was 15 µM; in the assay on HCT-116, 25.3 µM.

Take `COc1ccc(NC(=S)Nc2nc(C(=O)NCc3ccccc3)cs2)cc1`: the IC50 with PC-3 was found to be 39.3 µM; with HeLa, 22.9 µM; in the assay on HepG2 it was 28.1 µM; with MCF7, 24.6 µM; with HCT-116 it was 18.2 µM.

`CNC(=O)c1cc(Oc2ccc(NC(=O)Nc3ccc(Cl)c(C(F)(F)F)c3)cc2)ccn1` [SORAFENIB] yielded an IC50 in the assay on PC-3 of 11.5 µM.

As for `CCCC(=O)NNC(=O)c1csc2nc(CN3CCOCC3)c(-c3ccc(OC)cc3)n12`, the IC50 stood at 88.5 µM in the assay on PC-3; 53.7 µM with HeLa; 81.2 µM in the assay on HepG2; 72.4 µM in the assay on MCF7; 68.7 µM in the assay on HCT-116.

For `CCC(=O)NNC(=O)c1csc2nc(CN3CCOCC3)c(-c3ccc(C)cc3)n12`, the IC50 in the assay on PC-3 was determined as 79.1 µM; in the assay with HeLa, 48.4 µM; with HepG2 it was 69.2 µM; in the assay on MCF7, 58.2 µM; with HCT-116, 64.5 µM.

Consider `CCOC(=O)c1csc2nc(CN3CCOCC3)c(-c3ccc(C)cc3)n12`, for which the half-inhibitory concentration (IC50) in the assay on PC-3 worked out at 47.1 µM; with HeLa, 24.8 µM; in the assay on HepG2, 39 µM; in the assay with MCF7, 43.6 µM; in the assay on HCT-116, 32.6 µM.

Take `O=C(NCCc1ccccc1)c1csc(NC(=S)Nc2ccc(Cl)cc2)n1`: the IC50 stood at 33.8 µM in the assay on PC-3; 30.4 µM with HeLa; 11.8 µM in the assay on HepG2; 17.2 µM with MCF7; 29.7 µM in the assay with HCT-116.

As for `CCCC(=O)NNC(=O)c1csc2ncc(-c3ccc(C)cc3)n12`, the IC50 was found to be 53.5 µM in the assay with PC-3; 45.6 µM in the assay on HeLa; 26.8 µM with HepG2; 41.7 µM in the assay on MCF7; 34.5 µM with HCT-116.

In the case of `CC(=O)NNC(=O)c1csc2nc(CN3CCOCC3)c(-c3ccc(Br)cc3)n12`, the IC50 was 29.3 µM in the assay with PC-3; 13.6 µM in the assay on HeLa; 14.1 µM in the assay on HepG2; 19.1 µM with MCF7; 22 µM in the assay with HCT-116.

Regarding `CN(Cc1cnc2nc(N)nc(N)c2n1)c1ccc(C(=O)N[C@@H](CCC(=O)O)C(=O)O)cc1` [METHOTREXATE], the IC50 in the assay on PC-3 was determined as 28.8 µM; with HeLa it was 13.7 µM; in the assay on HepG2 it was 21.9 µM; in the assay on MCF7, 25.3 µM; with HCT-116, 9.25 µM.

As for `CCOC(=O)c1csc2nc(CN3CCN(Cc4ccccc4)CC3)c(-c3ccc(C)cc3)n12`, the IC50 in the assay with PC-3 is more than 100 µM; in the assay on HeLa, 38.8 µM; in the assay on HepG2 it was 88.2 µM; in the assay on MCF7, 29.1 µM; in the assay on HCT-116 it was 47.8 µM.

Turning to `COc1ccc(-c2c(CN3CCCCC3)nc3scc(C(=O)O)n23)cc1`, the 50% inhibitory concentration (IC50) came out at 73.1 µM in the assay on PC-3; 47.4 µM in the assay with HeLa; 75 µM in the assay with HepG2; 62.9 µM in the assay on MCF7; 84.6 µM in the assay on HCT-116.

With `COc1ccc(NC(=S)Nc2nc(C(=O)NCCc3ccccc3)cs2)cc1`, the IC50 turned out to be 25.1 µM with PC-3; 14.8 µM in the assay with HeLa; 19.5 µM in the assay with HepG2; 10.6 µM with MCF7; 8.13 µM in the assay with HCT-116.

Consider `CCCC(=O)NNC(=O)c1csc2ncc(-c3ccc(Br)cc3)n12`, for which the concentration for half-maximal inhibition (IC50) stood at 58.5 µM in the assay with PC-3; 31.9 µM with HeLa; 33.6 µM in the assay on HepG2; 27.5 µM in the assay on MCF7; 50.3 µM with HCT-116.

In the case of `CCOC(=O)c1csc2nc(CN3CCN(C)CC3)c(-c3ccc(C)cc3)n12`, the IC50 in the assay with PC-3 stood at 65 µM; with HeLa, 43.9 µM; in the assay on HepG2, 53.6 µM; in the assay on MCF7 it was 58.3 µM; in the assay with HCT-116, 61 µM.

Consider `O=C(NCCCc1ccccc1)c1csc(NC(=S)Nc2ccc(Cl)cc2)n1`, for which the IC50 is 42.4 µM in the assay on PC-3; 32.2 µM with HeLa; 53.1 µM in the assay with HepG2; 45.1 µM in the assay with MCF7; 36.6 µM with HCT-116.

For the compound `CCOC(=O)c1csc2nc(CN3CCN(Cc4ccccc4)CC3)c(-c3ccc(OC)cc3)n12`, the IC50 in the assay on PC-3 came to 29.4 µM; in the assay with HeLa, 9.94 µM; in the assay on HepG2, 26.4 µM; with MCF7, 17.1 µM; with HCT-116 it was 19.6 µM.

Consider `COc1ccc(-c2cnc3scc(C(=O)NNC(C)=O)n23)cc1`, for which the IC50 in the assay with PC-3 was found to be 28.3 µM; in the assay with HeLa it was 17.9 µM; with HepG2, 11.8 µM; in the assay with MCF7, 8.36 µM; with HCT-116, 17 µM.

As to `CCC(=O)NNC(=O)c1csc2nc(CN3CCOCC3)c(-c3ccc(Br)cc3)n12`, the IC50 in the assay on PC-3 stood at 42.7 µM; with HeLa, 27 µM; in the assay with HepG2 it was 31.2 µM; in the assay on MCF7, 25.4 µM; in the assay with HCT-116, 34.1 µM.

Regarding `COc1ccc(NC(=S)Nc2nc(C(=O)NCCCc3ccccc3)cs2)cc1`, the IC50 in the assay with PC-3 was 74.5 µM; in the assay on HeLa it was 57.5 µM; in the assay on HepG2, 71.3 µM; in the assay with MCF7, 63.8 µM; in the assay with HCT-116 it was 44.8 µM.

For the compound `COc1ccc(-c2c(CN3CCOCC3)nc3scc(C(=O)NNC(C)=O)n23)cc1`, the IC50 with PC-3 came to 34.8 µM; with HeLa, 18.9 µM; with HepG2, 23.7 µM; with MCF7, 11.3 µM; in the assay on HCT-116 it was 29.9 µM.

For the compound `CCCC(=O)NNC(=O)c1csc2ncc(-c3ccc(OC)cc3)n12`, the IC50 in the assay with PC-3 amounted to 66.4 µM; in the assay on HeLa, 43.3 µM; with HepG2 it was 38 µM; in the assay with MCF7, 32.8 µM; in the assay on HCT-116 it was 59.1 µM.

Consider `CCCC(=O)NNC(=O)c1csc2nc(CN3CCOCC3)c(-c3ccc(Br)cc3)n12`, for which the concentration for half-maximal inhibition (IC50) in the assay on PC-3 worked out at 52.9 µM; in the assay with HeLa, 29.2 µM; in the assay with HepG2, 38.4 µM; in the assay with MCF7 it was 35.9 µM; with HCT-116 it was 46.8 µM.

In the case of `CCCC(=O)NNC(=O)c1csc2nc(CN3CCOCC3)c(-c3ccc(C)cc3)n12`, the IC50 was more than 100 µM with PC-3; 67.9 µM with HeLa; 92.4 µM in the assay with HepG2; 89.3 µM in the assay with MCF7; 77.5 µM in the assay with HCT-116.

As for `CCC(=O)NNC(=O)c1csc2nc(CN3CCOCC3)c(-c3ccc(OC)cc3)n12`, the 50% inhibitory concentration (IC50) in the assay with PC-3 worked out at 73.9 µM; with HeLa, 44.2 µM; with HepG2 it was 55.9 µM; with MCF7 it was 64.1 µM; with HCT-116 it was 59.3 µM.

For the compound `CCOC(=O)c1csc2nc(CN3CCOCC3)c(-c3ccc(Br)cc3)n12`, the half-maximal inhibitory concentration (IC50) in the assay with PC-3 stood at 35.2 µM; with HeLa, 20.8 µM; in the assay with HepG2, 32.5 µM; in the assay with MCF7 it was 24.6 µM; with HCT-116 it was 28.5 µM.

As to `CCC(=O)NNC(=O)c1csc2ncc(-c3ccc(OC)cc3)n12`, the IC50 was 79.8 µM in the assay on PC-3; 56.2 µM in the assay on HeLa; 45.8 µM in the assay with HepG2; 53.2 µM in the assay on MCF7; 64.3 µM with HCT-116.

`CCOC(=O)c1csc2nc(CN3CCOCC3)c(-c3ccc(OC)cc3)n12`: the IC50 in the assay on PC-3 turned out to be 22.6 µM; in the assay with HeLa, 16.4 µM; with HepG2, 19.8 µM; in the assay with MCF7, 13.9 µM; in the assay on HCT-116, 25.8 µM.

Take `O=C(O)c1csc2nc(CN3CCCCC3)c(-c3ccc(Br)cc3)n12`: the half-inhibitory concentration (IC50) is more than 100 µM in the assay on PC-3; 76.6 µM in the assay on HeLa; more than 100 µM in the assay on HepG2; 87.5 µM in the assay with MCF7; more than 100 µM in the assay with HCT-116.

As for `CC(=O)NNC(=O)c1csc2ncc(-c3ccc(C)cc3)n12`, the IC50 in the assay with PC-3 was 92.7 µM; in the assay on HeLa, 74.2 µM; with HepG2, 63.6 µM; in the assay on MCF7, 57.3 µM; in the assay with HCT-116, 71.8 µM.

As for `CCOC(=O)c1csc2nc(CN3CCN(Cc4ccccc4)CC3)c(-c3ccc(Br)cc3)n12`, the IC50 came out at 56.4 µM in the assay on PC-3; 29.5 µM in the assay on HeLa; 47.3 µM with HepG2; 51.4 µM in the assay on MCF7; 37.2 µM in the assay on HCT-116.

`CC(=O)NNC(=O)c1csc2nc(CN3CCOCC3)c(-c3ccc(C)cc3)n12`: the half-inhibitory concentration (IC50) in the assay on PC-3 came to 61.3 µM; with HeLa, 35.3 µM; with HepG2, 43 µM; in the assay on MCF7, 50.8 µM; in the assay with HCT-116, 54.6 µM.

Consider `CCOC(=O)c1csc2nc(CN3CCN(C)CC3)c(-c3ccc(OC)cc3)n12`, for which the half-inhibitory concentration (IC50) worked out at 69.4 µM with PC-3; 35.1 µM in the assay on HeLa; 68.4 µM with HepG2; 32.8 µM with MCF7; 44.6 µM in the assay on HCT-116.
